Here are results for six compounds from patent publication US9579330B2, “Use and application regimen of a pharmaceutical composition containing levonorgestrel and a COX inhibitor for on-demand contraception” (priority 2012, dated 2017).

For one test, the system named is cervical secretion. Particulars: clinical study; cited from earlier work.
A further test relates to fertility of female rats. Nature of the test: Rat fertility test: single application in pro oestrus, pairing, number of implantation sites. Type of test: in vivo, Han Wistar rats. How it is done: In the experiments below, female Han Wistar rats with a weight of 200-270 g were used. The animals were kept in Macrolon cages in rooms with controlled lighting (12 hours darkness: 12 hours lightness), fed with a standard diet and watered with water ad libitum. Levonorgestrel was dissolved in benzyl benzoate/castor oil (1+4 v/v) and the daily dose was applied in a volume of 1 ml/kg of body weight s.c. The COX inhibitors were suspended in a carrier liquid (85 mg Myrj®53 polyoxyl(50)stearate; CAS No. 9004-99-3) in 100 ml of 0.9% w/v NaCl solution) and the dose corresponding to the treatment group was administered orally in a volume of 2 ml/kg of body weight. Two cycles were observed using vaginal smears prior to the start of the experiment. […] Assignment to the treatment groups was random. The animals were treated once with the test substances either on their own or in combination in pro oestrus, the day in the cycle on which in the evening the LH peaked. On the evening of […] the female animals were paired with male rats. Successful pairing was tested the next morning by means of a vaginal sperm detection in the vaginal smear. The influence on the fertility was ascertained 9-15 days after the pairing via the number of implantation sites of the animals. The group size was n=6 animals per group.

Test [1] relates to prostaglandin E2 (PEG2) synthesis in the ovaries.
In a further test the test system is fertility in humans. Particulars: taken over a prolonged period for treating Bechterew's disease; cited from earlier work.
For the next test, the system named is ovulation of women. The test can be described thus: Clinical phase IIa study: oral single dose of piroxicam after start of the LH increase, ovulation inhibition or delay. Type of test: in vivo. Particulars: for Time from LH increase to ovulation in the treatment cycle, average value / Time from LH increase to ovulation in the treatment cycle, median / Time from LH increase to ovulation in the treatment cycle, range: N = 16; for % of women who exhibited an at least plus 24 hour delay in ovulation / Number of women who exhibited an at least plus 24 hour delay in ovulation compared to the median time between LH increase and ovulation in the untreated previous cycle: N = 16, final evaluation set. The protocol: In a clinical phase IIa study (monocentric, double blind, placebo controlled, randomized, parallel groups), piroxicam was administered to women of a fertile age in the dosages 20, 40 and 80 mg as an oral single dose. Overall, 72 women were treated, of which 18 women were given 20 mg, 17 women were given 40 mg, 20 women were given 80 mg of piroxicam and 17 women were given a placebo preparation. It was the aim of the study to investigate whether the oral single administration of piroxicam after the start of the LH increase has an effect on ovulation compared to the placebo in healthy young women. An ovulation inhibition or delay by at least plus 24 hours longer than the median duration between LH increase and ovulation in the untreated previous cycle of the study population was evaluated as the effect. For this purpose, transvaginal ultrasound investigations and hormone level measurements were carried out. Only women (n=64) without serious protocol deviations which could have influenced the study aim were included in the final study evaluation.
Adapted Kaplan-Meier curve for depicting the ovulation delay following administration of piroxicam compared to the administration of a placebo preparation. The time after the LH increase is plotted on the X axis in days. […] The individual curves represent the individual treatment groups: placebo group (solid line); 20 mg of piroxicam (dotted line consisting of short strokes), 40 mg of piroxicam (dotted line consisting of long strokes) and 80 mg of piroxicam (dotted line consisting of alternating long and short strokes).

Setting [2] is: Table 2.3, treatment at 17:00, LNG 0.5 mg/animal (n = 5), diclofenac 4 mg/animal.
[3] abbreviates: Table 2.4, treatment at 17:00, LNG 0.5 mg/animal, ibuprofen 12.5 mg/animal.
The mark [4] stands for this setting: Table 2.4, treatment at 17:00, ibuprofen 25 mg/animal alone or with LNG 0.5 mg/animal.
Where [5] appears, read: Table 2.2, treatment at 17:00, LNG 0.5 mg/animal, indomethacin 1 mg/animal, combination n = 5.
Setting [6] is: Table 2.1, treatment at 7:00, LNG 0.5 mg/animal s.c., piroxicam 2 mg/animal oral, single application.
Setting [7] is: Table 2.1, treatment at 13:00, LNG 0.5 mg/animal s.c., piroxicam 2 mg/animal oral, single application.
The mark [8] stands for this setting: Table 2.5, LNG 0.5 mg/animal at 17:00 (n = 5), naproxen 10 mg/animal at 20:00 (n = 4), combination 17:00.
The mark [9] stands for this setting: Table 2.5, naproxen 2 × 5 mg/animal at 17:00 and 20:00, alone or with LNG 0.5 mg/animal.

Like-named read-outs stand apart in the source and are kept apart here. Marks after values point to notes of the source that are not given here.

Turning to `O=C(O)Cc1ccccc1Nc1c(Cl)cccc1Cl` [Diclofenac, diclofenac], the “Effect on cervical secretion (in words)” value with cervical secretion is reported as “reduction in cervical secretion”. In the test with fertility of female rats (setting [2]), the “Implantations per animal (average value ± SD)” value was 3.7 ± 3.6 and the “Sum of the implantation sites of 6 animals” value is reported as 22.

In the case of `CC(C)Cc1ccc(C(C)C(=O)O)cc1` (stereo not drawn) [Ibuprofen, ibuprofen], the “Implantations per animal (average value ± SD)” value is 10.8 ± 3.2 in the test with fertility of female rats (setting [3]) and 11.3 ± 2.6 in the test on fertility of female rats (setting [4]). Moreover, the results for the “Sum of the implantation sites of 6 animals” value in the test with fertility of female rats (setting [3]) and in the test on fertility of female rats (setting [4]) were 65 and 68, respectively.

As for `COc1ccc2c(c1)c(CC(=O)O)c(C)n2C(=O)c1ccc(Cl)cc1` [Indomethacin, indomethacin], in the test with fertility of female rats (setting [5]), the “Implantations per animal (average value ± SD)” value is given as 4.8 ± 4.1 and the “Sum of the implantation sites of 6 animals” value is 29.

As to `C#C[C@]1(O)CC[C@H]2[C@@H]3CCC4=CC(=O)CC[C@@H]4[C@H]3CC[C@@]21CC` [LNG, levonorgestrel], the “Implantations per animal (average value ± SD)” value in the test on fertility of female rats (setting [6]) was found to be 8.3 ± 4.3; in the test on fertility of female rats (setting [7]), 5.3 ± 3.1; with fertility of female rats (setting [5]) it was 7.5 ± 4.0; with fertility of female rats (setting [2]) it was 6.8 ± 5.9; in the test with fertility of female rats (setting [3]), 10.5 ± 4.5; with fertility of female rats (setting [8]), 7.8 ± 5.9. Moreover, the “Sum of the implantation site, of 6 animals” value with fertility of female rats (setting [6]) was 50; with fertility of female rats (setting [7]), 32. For the same compound, the “Sum of the implantation sites of 6 animals” value with fertility of female rats (setting [5]) is 45; with fertility of female rats (setting [2]), 34*; in the test with fertility of female rats (setting [3]), 63; with fertility of female rats (setting [8]) it was 39*.

As to `COc1ccc2cc([C@H](C)C(=O)O)ccc2c1` [Naproxen, naproxen], the “Prostaglandin E2 in the ovaries, average value” in test [1] (sample at 18:00, 2 hours after oral 20 mg/kg naproxen (around 16:00)) was 12.9 pg/500 μg tissue; in test [1] (sample at 20:00, 4 hours after oral 20 mg/kg naproxen (around 16:00)), 32.1 pg/500 μg tissue; in test [1] (sample at 22:00, 6 hours after oral 20 mg/kg naproxen (around 16:00)) it was 72.4 pg/500 μg tissue. In addition, in test [1] (under the action of naproxen), the “Prostaglandin E2 (PEG2) synthesis in the ovaries (in words)” value is on record as “reduced”. Besides, the “Implantations per animal (average value ± SD)” value is reported as 5.8 ± 4.4 in the test on fertility of female rats (setting [8]) and 7.3 ± 3.6 with fertility of female rats (setting [9]). The figures for the “Sum of the implantation sites of 6 animals” value in the test with fertility of female rats (setting [8]) and in the test with fertility of female rats (setting [9]) were 23** and 44, respectively. Also, the “Antifertile effect in the rat fertility test (in words)” value in the test on fertility of female rats (single application, doses as in Tables 2.1-2.5) is on record as “reduction in fertility”. Also, the “Effect on fertility in humans (in words)” value with fertility in humans is “antifertile effect”.

In the case of `CN1C(C(=O)Nc2ccccn2)=C(O)c2ccccc2S1(=O)=O` [Piroxicam, piroxicam], in the test with fertility of female rats (setting [6]), the “Implantations per animal (average value ± SD)” value stood at 9.5 ± 4.8 and the “Sum of the implantation site, of 6 animals” value is 57. In the test with fertility of female rats (setting [7]), the “Implantations per animal (average value ± SD)” value came to 10.0 ± 5.3 and the “Sum of the implantation site, of 6 animals” value is on record as 60. Moreover, in the test with ovulation of women (20 mg oral single dose), the “Extension of the time (median) between LH increase and ovulation in the treatment cycle compared to the previous cycle” value worked out at 17 h; the “Time from LH increase to ovulation in the treatment cycle, average value” (“Time from LH increase … average value” below) is 133 h; the “Time from LH increase to ovulation in the treatment cycle, median” value (shortened to “Time from LH increase to ovulation … median”) stood at 65 h; the “Time from LH increase to ovulation in the treatment cycle, range” value (“Time from LH increase to ovulation … range” for short) was in the range of 38 to 416 h. Also, in the test with ovulation of women (20 mg oral single dose), the “% of women who exhibited an at least plus 24 hour delay in ovulation” value is 50.0%; the “Number of women who exhibited an at least plus 24 hour delay in ovulation compared to the median time between LH increase and ovulation in the untreated previous cycle” value is given as 8. In the test with ovulation of women (40 mg oral single dose), the “Extension of the time (median) between LH increase and ovulation in the treatment cycle compared to the previous cycle” value amounted to 15 h; the “Time from LH increase … average value” came out at 121 h; the “Time from LH increase to ovulation … median” value is 63 h; the “Time from LH increase to ovulation … range” value was in the range of 37 to 384 h. In addition, in the test on ovulation of women (40 mg oral single dose), the “% of women who exhibited an at least plus 24 hour delay in ovulation” value amounted to 43.8%; the “Number of women who exhibited an at least plus 24 hour delay in ovulation compared to the median time between LH increase and ovulation in the untreated previous cycle” value was determined as 7. In the test on ovulation of women (80 mg oral single dose), the “Extension of the time (median) between LH increase and ovulation in the treatment cycle compared to the previous cycle” value turned out to be 228 h; the “Time from LH increase … average value” was determined as 219 h; the “Time from LH increase to ovulation … median” value was found to be 276 h; the “Time from LH increase to ovulation … range” value was in the range of 48 to 386 h. Besides, in the test on ovulation of women (80 mg oral single dose), the “% of women who exhibited an at least plus 24 hour delay in ovulation” value is on record as 68.8%; the “Number of women who exhibited an at least plus 24 hour delay in ovulation compared to the median time between LH increase and ovulation in the untreated previous cycle” value came out at 11. Moreover, the “Effect on ovulation compared to placebo (in words)” value with ovulation of women (all three dose groups (20, 40, 80 mg)) is given as “more marked effect on ovulation than in the placebo group”.
